From US10821104B2, “Five-membered heterocyclic amides WNT pathway inhibitor” (SUZHOU SINOVENT PHARMACEUTICALS CO., LTD., priority 2015, dated 2020) come the findings set out here.

In one assay the test system is zebrafish axis formation. In words: Effect of compounds on axis formation of zebrafish (zebrafish phenotype screening). Type of assay: in vivo, Zebrafish Danio rerio. The settings on record: embryos treated from 3 h to 48 h post fertilization, concentration at which 50% of axis formation is inhibited, read-out: IC50, inhibition of axis formation of zebrafish. As to the method:
Method: Zebrafish embryos were collected after natural spawning. Embryos were treated from the 16 cell stage (3 hours post fertilization) with different concentration series 100 μM˜0.001 μM of the compound in 1% DMSO/fish water or with DMSO equivalent. The zebrafish were placed in a 6-well microplate at a density of 20 zebrafish per well with 3 mL of fish water. Zebrafish were incubated at 28.5° C. in the dark until 48 h post fertilization, then anesthetized, and imaged under a dissecting stereomicroscope installed with a high-speed video camera (JVC, Japan). Quantitative length of axis was performed with NIS-Elements D 3.1 soft and pixels data were expressed as mean±SEM. The effect of compound on axis formation of zebrafish was calculated based on the following formula: Inhibition on axis growth (%)=[1−Pixel(compound)/Pixel(vehicle)]×100%
(§1) Inhibition curves were generated using GraphPad Prism 6.0 (GraphPad Software Inc., San Diego Calif.) and IC50 was determined with logistic regression.

For assay [1], the system named is Wnt/β-catenin reporter (Super 8×TOPFLASH) in HEK293 cells cocultured with L-Wnt3a-expressing cells. The assay can be described thus: 293T/TOPLUC-Wnt3a luciferase reporter gene assay. The settings on record: read-out: IC50, inhibition of Wnt/β-catenin reporter gene readout. In kind it is cell-based. As to the method: In this assay, HEK293 cells harboring a luciferase-based Wnt/β-catenin reporter (Super 8×TOPFLASH) were cocultured with L-Wnt3a-expressing cells. 293T/TOPLUC-Wnt3a were incubated with small molecules for 24 h. The level of the Luciferase reporter gene was used as an indicator for Wnt ligand-driven, LEF/TCF-dependent transcriptional activities. IC50 is defined as the compound concentration at which 50% of luciferase reporter activity is inhibited.
Results: REX-P compounds were investigated on CrownBio Cell plateform to assay the activity of inhibiting Wnt/β-catenin reporter activity, results are shown in Table 3.
(In general: Reporter assays use an easily measured gene product as a stand-in for the process of interest.)

In assay [2] the test system is regeneration of zebrafish tailfin resected. The assay can be described thus: Effect of compounds on tailfin regeneration of zebrafish (resected caudal fin). In kind it is in vivo. Conditions: Danio rerio; 3 d.p.f. zebrafish with resected caudal fins treated until 7 d.p.f.; read-out: IC50, inhibition of regeneration of zebrafish tailfin resected. As for the experimental part: Method: Three days post fertilization (d.p.f) zebrafish with resected caudal fins were placed in water containing 1% DMSO carrier or compounds (10 μM˜0.001 μM) until 7 d.p.f. The zebrafish were placed in a 6-well microplate at a density of 15 zebrafish per well with 3 mL of fish water. Zebrafish were incubated at 28.5° C. in the dark until 7 d.p.f., then anesthetized, and imaged under a dissecting stereomicroscope installed with a high-speed video camera (JVC, Japan). Quantitative length of regeneration of tailfin was performed and pixels data were expressed as mean±SEM. The effect of compound on regeneration of tailfin of zebrafish was calculated based on the following formula: Drug inhibition on regeneration of tailfin (%)=[1−Pixel(compound)/Pixel(vehicle)]×100%.
as §1

[3] abbreviates: Homo sapiens, HEK293, 24 h incubation.

Like-named read-outs stand apart in the source and are kept apart here.

As for “5-(4-chlorophenyl)-N-((2′,3-dimethyl-[2,4′-bipyridin]-5-yl)methyl)thiazole-2-carboxamide [REX-P-13]”, the results for the IC50 (in the assay with zebrafish axis formation; in assay [1] (24 h incubation)) were over 10000 nM and over 1000 nM, respectively.

Consider `Cc1cc(-c2ncc(CNC(=O)c3cnc(-c4ccccc4)s3)cc2C)ccn1` [REX-P-3, N-((2′,3-dimethyl-[2,4′-bipyridin]-5-yl)methyl)-2-phenylthiazole-5-carboxamide], for which the IC50 in the assay on zebrafish axis formation (Danio rerio) was 144 nM; in assay [1] (setting [3]) it was under 0.1 nM; in assay [2], 84 nM.

Regarding `Cc1cc(-c2ncc(CNC(=O)c3csc(-c4ccccc4)n3)cc2C)ccn1` [REX-P-5, N-((2′,3-dimethyl-[2,4′-bipyridin]-5-yl)methyl)-2-phenylthiazole-4-carboxamide], the IC50 with zebrafish axis formation (Danio rerio) is over 40000 nM; in assay [1] (setting [3]), over 1000 nM.

As for `Cc1cc(-c2ncc(CNC(=O)c3nnc(-c4cnccn4)s3)cc2C)ccn1` [REX-P-52, N-((2′,3-dimethyl-[2,4′-bipyridin]-5-yl)methyl)-5-(pyrazin-2-yl)-1,3,4-thiadiazole-2-carboxamide], the figures for the IC50 (in the assay on zebrafish axis formation (Danio rerio); in assay [1] (setting [3]); in assay [2]) were 640 nM, 1.38 nM and 746 nM, respectively.

With `Cc1cc(-c2ncc(CNC(=O)c3cc(-c4ccccn4)[nH]n3)cc2C)ccn1` [REX-P-16, N-((2′,3-dimethyl-[2,4′-bipyridin]-5-yl)methyl)-5-(pyridin-2-yl)-1H-pyrazole-3-carboxamide], the IC50 is over 10000 nM in the assay on zebrafish axis formation (Danio rerio) and 16.8 nM in assay [1] (setting [3]).

Regarding `Cc1cc(-c2ncc(CC(=O)Nc3ccc(-c4cnccn4)cn3)cc2C)ccn1` [LGK-974, reference compound], the IC50 in the assay with zebrafish axis formation (Danio rerio) is 583 nM; in assay [1] (setting [3]) it was 0.574 nM; in assay [2], 462 nM.

As for `Cc1cc(-c2ncc(CNC(=O)c3nnc(-c4cncc(F)c4)s3)cc2C)ccn1` [REX-P-49, N-((2′,3-dimethyl-[2,4′-bipyridin]-5-yl)methyl)-5-(5-fluoropyridin-3-yl)-1,3,4-thiadiazole-2-carboxamide], the IC50 with zebrafish axis formation (Danio rerio) is 52 nM; in assay [1] (setting [3]) it was 0.248 nM; in assay [2], 137 nM.

Consider `Cc1cc(-c2ncc(CNC(=O)c3cc(-c4ccccc4)n(C)n3)cc2C)ccn1` [REX-P-9, N-((2′,3-dimethyl-[2,4′-bipyridin]-5-yl)methyl)-1-methyl-5-phenyl-1H-pyrazole-3-carboxamide], for which the results for the IC50 (in the assay on zebrafish axis formation (Danio rerio); in assay [1] (setting [3])) were over 20000 nM and over 1000 nM, respectively.

For `Cc1cc(-c2ncc(CNC(=O)c3cnc(-c4cccc(Cl)c4)s3)cc2C)ccn1` [REX-P-22, 2-(3-chlorophenyl)-N-((2′,3-dimethyl-[2,4′-bipyridin]-5-yl)methyl)thiazole-5-carboxamide], the IC50 in the assay on zebrafish axis formation (Danio rerio) came out at 178 nM; in assay [1] (setting [3]), 0.72 nM; in assay [2] it was 28 nM.

As for `Cc1cc(-c2ncc(CNC(=O)c3nnc(-c4cccc(C)n4)s3)cc2C)ccn1` [REX-P-50, N-((2′,3-dimethyl-[2,4′-bipyridin]-5-yl)methyl)-5-(6-methylpyridin-2-yl)-1,3,4-thiadiazole-2-carboxamide], the figures for the IC50 (with zebrafish axis formation (Danio rerio); in assay [1] (setting [3]); in assay [2]) were 64 nM, 0.389 nM and 111 nM, respectively.

For the compound `Cc1cc(-c2ncc(CNC(=O)c3nnc(-c4ccccc4)s3)cc2C)ccn1` [REX-P-8, N-((2′,3-dimethyl-[2,4′-bipyridin]-5-yl)methyl)-5-phenyl-1,3,4-thiadiazole-2-carboxamide], the IC50 was 21 nM with zebrafish axis formation (Danio rerio), 1.92 nM in assay [1] (setting [3]) and 27 nM in assay [2].

Take `Cc1cc(-c2ncc(CNC(=O)c3nnc(-c4cccc(F)c4)s3)cc2C)ccn1` [REX-P-46, N-((2′,3-dimethyl-[2,4′-bipyridin]-5-yl)methyl)-5-(3-fluorophenyl)-1,3,4-thiadiazole-2-carboxamide]: the IC50 in the assay with zebrafish axis formation (Danio rerio) turned out to be 10 nM; in assay [1] (setting [3]) it was 0.125 nM; in assay [2] it was 16 nM.

Take `Cc1cc(-c2ncc(CNC(=O)c3nnc(-c4ncccn4)s3)cc2C)ccn1` [REX-P-51, N-((2′,3-dimethyl-[2,4′-bipyridin]-5-yl)methyl)-5-(pyrimidin-2-yl)-1,3,4-thiadiazole-2-carboxamide]: the IC50 in the assay on zebrafish axis formation (Danio rerio) was over 10000 nM.

In the case of `Cc1cc(-c2ncc(CNC(=O)c3nnc(-c4ccccn4)s3)cc2C)ccn1` [REX-P-47, N-((2′,3-dimethyl-[2,4′-bipyridin]-5-yl)methyl)-5-(pyridin-2-yl)-1,3,4-thiadiazole-2-carboxamide], the IC50 with zebrafish axis formation (Danio rerio) is 163 nM; in assay [1] (setting [3]), 0.673 nM; in assay [2] it was 207 nM.

On to `Cc1cc(-c2ncc(CNC(=O)c3nnc(-c4ncccc4F)s3)cc2C)ccn1` [REX-P-48, N-((2′,3-dimethyl-[2,4′-bipyridin]-5-yl)methyl)-5-(3-fluoropyridin-2-yl)-1,3,4-thiadiazole-2-carboxamide], for which the values for the IC50 (with zebrafish axis formation (Danio rerio); in assay [2]) were 896 nM and 721 nM, respectively.

Take `Cc1cc(-c2ncc(CNC(=O)c3ncc(-c4ccccc4)s3)cc2C)ccn1` [REX-P-4, N-((2′,3-dimethyl-[2,4′-bipyridin]-5-yl)methyl)-5-phenylthiazole-2-carboxamide]: the IC50 in the assay with zebrafish axis formation (Danio rerio) is 36.9 nM; in assay [1] (setting [3]), under 0.1 nM.

Regarding `Cc1cc(-c2ncc(CNC(=O)c3cc(-c4ccccc4)[nH]n3)cc2C)ccn1` [REX-P-2, N-((2′,3-dimethyl-[2,4′-bipyridin]-5-yl)methyl)-5-phenyl-1H-pyrazole-3-carboxamide], the IC50 was found to be 8230 nM in the assay with zebrafish axis formation (Danio rerio), 1.76 nM in assay [1] (setting [3]) and 3910 nM in assay [2].

In the case of `Cc1cc(-c2ncc(CNC(=O)c3cc(-c4ccccc4)nn3C)cc2C)ccn1` [REX-P-1, N-((2′,3-dimethyl-[2,4′-bipyridin]-5-yl)methyl)-1-methyl-3-phenyl-1H-pyrazole-5-carboxamide], the figures for the IC50 (in the assay with zebrafish axis formation (Danio rerio); in assay [1] (setting [3])) were 29900 nM and 92.6 nM, respectively.

As for `Cc1cc(-c2ncc(CNC(=O)c3nnc(-c4cccc(Cl)c4)s3)cc2C)ccn1` [REX-P-45, 5-(3-chlorophenyl)-N-((2′,3-dimethyl-[2,4′-bipyridin]-5-yl)methyl)-1,3,4-thiadiazole-2-carboxamide], the figures for the IC50 (in the assay on zebrafish axis formation (Danio rerio); in assay [1] (setting [3]); in assay [2]) were 14 nM, 0.31 nM and 23 nM, respectively.

Take `Cc1cc(-c2ncc(CNC(=O)c3nc(-c4ccccc4)cs3)cc2C)ccn1` [REX-P-6, N-((2′,3-dimethyl-[2,4′-bipyridin]-5-yl)methyl)-4-phenylthiazole-2-carboxamide]: the IC50 with zebrafish axis formation (Danio rerio) is over 100000 nM; in assay [1] (setting [3]), over 1000 nM.

`Cc1cc(-c2ncc(CNC(=O)c3nnc(-c4ncccc4C)s3)cc2C)ccn1` [REX-P-56, N-((2′,3-dimethyl-[2,4′-bipyridin]-5-yl)methyl)-5-(3-methylpyridin-2-yl)-1,3,4-thiadiazole-2-carboxamide]: the IC50 in the assay on zebrafish axis formation (Danio rerio) turned out to be 62 nM.

As for `Cc1cc(-c2ncc(CNC(=O)c3ncc(-c4cccc(Cl)c4)s3)cc2C)ccn1` [REX-P-12, 5-(3-chlorophenyl)-N-((2′,3-dimethyl-[2,4′-bipyridin]-5-yl)methyl)thiazole-2-carboxamide], the IC50 in the assay on zebrafish axis formation (Danio rerio) is over 100000 nM; in assay [1] (setting [3]) it was 9.16 nM.
